Results: patent publication US11149031B2, “Substituted N-(3-fluoropropyl)-pyrrolidine compounds, processes for their preparation and therapeutic uses thereof” (SANOFI, priority 2016, dated 2021)
Read-outs that look alike come from different tables or passages of the source.

How the values were obtained:
ERα in MCF7 cells = ERα in MCF7 cells (Homo sapiens (Human), UniProt P03372); assay: Test C: estrogen receptor degradation activity, ERα in cell western assay in MCF7 cells; format: cell-based; details: for DC50: 4 hours post compound addition, ERα in cell western, read-out: Degradation IC50; for % Degradation at 3 μM: 4 hours, relative to fulvestrant
Sequence of ERα in MCF7 cells (P03372 whole entry): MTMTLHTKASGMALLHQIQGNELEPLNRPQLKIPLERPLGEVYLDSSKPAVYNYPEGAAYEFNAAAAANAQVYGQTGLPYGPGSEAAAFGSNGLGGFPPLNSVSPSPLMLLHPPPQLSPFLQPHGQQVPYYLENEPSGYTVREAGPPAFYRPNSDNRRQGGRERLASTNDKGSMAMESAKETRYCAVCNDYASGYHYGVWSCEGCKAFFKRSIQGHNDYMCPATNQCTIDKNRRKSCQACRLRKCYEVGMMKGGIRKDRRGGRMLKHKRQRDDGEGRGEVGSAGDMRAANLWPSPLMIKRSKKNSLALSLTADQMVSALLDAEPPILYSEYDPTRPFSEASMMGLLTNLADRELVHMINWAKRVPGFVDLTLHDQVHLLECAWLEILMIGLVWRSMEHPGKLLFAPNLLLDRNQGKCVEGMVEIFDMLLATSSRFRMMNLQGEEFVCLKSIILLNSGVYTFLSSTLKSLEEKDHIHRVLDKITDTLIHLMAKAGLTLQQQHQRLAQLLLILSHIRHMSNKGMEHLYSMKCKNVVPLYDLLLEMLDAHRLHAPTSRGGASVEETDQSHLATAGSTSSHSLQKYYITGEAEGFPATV
How it was run: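 MCF7 cells in phenol-red-free medium with 5% charcoal-stripped FBS received compound (9-point 1:5, 3-0.000018 μM) for 4 h, then were fixed. ERα immunostained (Alexa 488) and normalised to DNA (Syto-64), read as integrated fluorescence on an Acumen scanner.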

[1] = system: MCF7 cells expressing mutant estrogen receptor Asp 538 Gly; assay: Test B: cell proliferation/viability assay (CellTiter-Glo) on MCF7 Asp 538 Gly mutant; format: cell-based; details: Homo sapiens, MCF7, 168 h, MCF7 cells expressing ER Asp 538 Gly mutant, 7 days of compound exposure, read-out: proliferation MCF7 D538G IC50
How it was run: (§1)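 Mutant lines are MCF7 transfected with ER mutants and selected for estradiol-independent growth. Cells in phenol red-free MEM with 5% charcoal-stripped FBS received 9-point 1:5 dilutions (3-0.000001 μM) for 7 days; CellTiter-Glo luminescence, % viability relative to untreated after background subtraction.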

[2] = biological target: His6-ERα298-554 D538G mutant (ERα ligand-binding domain) (Homo sapiens (Human), UniProt P03372, D538G); assay: Test A: biochemical antagonist activity, LanthaScreen TR-FRET ERα coactivator assay, D538G mutant; details: read-out: Antagonism D538G IC50
Sequence of His6-ERα298-554 D538G mutant (ERα ligand-binding domain) (P03372 298-554 D538G): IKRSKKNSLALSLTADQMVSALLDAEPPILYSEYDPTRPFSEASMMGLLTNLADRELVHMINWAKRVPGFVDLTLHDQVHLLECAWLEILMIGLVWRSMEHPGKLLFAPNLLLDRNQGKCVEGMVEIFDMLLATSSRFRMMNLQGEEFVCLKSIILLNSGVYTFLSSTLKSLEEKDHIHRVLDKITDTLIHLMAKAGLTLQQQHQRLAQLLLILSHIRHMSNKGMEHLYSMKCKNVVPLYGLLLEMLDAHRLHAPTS
How it was run: (§2)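 TR-FRET 520:495 nm emission ratio read after overnight room-temperature incubation; IC50 derived by 4-parameter logistic fit. Mix: 0.5 nM receptor LBD, 0.5 nM Tb-His6 antibody, 250 nM PGC1a peptide, 3 nM or 10 nM estradiol, pH 7.4 phosphate buffer.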

[3] = biological target: His6-ERα298-554 WT (ERα ligand-binding domain) (Homo sapiens (Human), UniProt P03372); assay: Test A: biochemical antagonist activity, LanthaScreen TR-FRET ERα coactivator assay, WT; details: read-out: Antagonism WT IC50
Sequence of His6-ERα298-554 WT (ERα ligand-binding domain) (P03372 298-554): as the sequence (P03372 298-554 D538G) above, with G241D counted along it
How it was run: as §2

[4] = system: MCF7 cells (breast tumor cells) WT; assay: Test B: cell proliferation/viability assay (CellTiter-Glo) on MCF7 WT; format: cell-based; details: Homo sapiens, MCF7, 168 h, 7 days of compound exposure
How it was run: as §1

[5] = biological target: His6-ERα298-554 Y537S mutant (ERα ligand-binding domain) (Homo sapiens (Human), UniProt P03372, Y537S); assay: Test A: biochemical antagonist activity, LanthaScreen TR-FRET ERα coactivator assay, Y537S mutant; details: read-out: Antagonism Y537S IC50
Sequence of His6-ERα298-554 Y537S mutant (ERα ligand-binding domain) (P03372 298-554 Y537S): as the sequence (P03372 298-554 D538G) above, with Y240S, G241D counted along it
How it was run: as §2

[6] = system: MCF7 cells expressing mutant estrogen receptor Tyr 537 Ser; assay: Test B: cell proliferation/viability assay (CellTiter-Glo) on MCF7 Tyr 537 Ser mutant; format: cell-based; details: Homo sapiens, MCF7, 168 h, MCF7 cells expressing ER Tyr 537 Ser mutant, 7 days of compound exposure, read-out: proliferation MCF7 Y537S IC50
How it was run: as §1

[7] = asterisk (*): protocol using 10 nM estradiol

Row | Compound | DC50 (ERα in MCF7 cells) | % Degradation at 3 μM (ERα in MCF7 cells) | IC50 [1] | IC50 ([2]; protocol with 3 nM estradiol) | IC50 ([3]; protocol with 3 nM estradiol) | IC50 [4] | IC50 ([5]; protocol with 3 nM estradiol) | IC50 [6] | IC50 [2, 7] | IC50 [3, 7] | IC50 [5, 7]
1 | Cc1ccc(C2=C(c3ccc(O[C@H]4CCN(CCCF)C4)cc3)c3cc(F)c(O)cc3OCC2)c(F)c1 [Example 138, 7-fluoro-4-(2-fluoro-4-methyl-phenyl)-5-[4-[(3S)-1-(3-fluoropropyl)pyrrolidin-3-yl]oxyphenyl]-2,3-dihydro-1-benzoxepin-8-ol] | 0.5 nM | 89% | 7 nM | 360 nM | 18 nM | 2 nM | 253 nM | 51 nM |  |  | 
2 | CC(C)Oc1ccc(C2=C(c3ccc(O[C@H]4CCN(CCCF)C4)cc3)c3ccc(O)cc3OCC2)cc1F [Example 141, 4-(3-fluoro-4-isopropoxy-phenyl)-5-[4-[(3S)-1-(3-fluoropropyl)pyrrolidin-3-yl]oxyphenyl]-2,3-dihydro-1-benzoxepin-8-ol] | 2 nM | 87% | 4 nM | 1500 nM | 23 nM | 1 nM | 1120 nM | 22 nM |  |  | 
3 | Oc1cc2c(cc1F)C(c1ccc(O[C@H]3CCN(CCCF)C3)cc1)=C(c1ccc3c(c1)CCN3)CCO2 [Example 142, 7-fluoro-5-[4-[(3S)-1-(3-fluoropropyl)pyrrolidin-3-yl]oxyphenyl]-4-indolin-5-yl-2,3-dihydro-1-benzoxepin-8-ol] | 2 nM | 83% | 34 nM | 1820 nM | 41 nM | 8 nM | 1150 nM | 154 nM |  |  | 
4 | Oc1cc2c(cc1Cl)C(c1ccc(O[C@H]3CCN(CCCF)C3)cc1)=C(c1ccc3c(c1)CCN3)CCO2 [Example 143, 7-chloro-5-[4-[(3S)-1-(3-fluoropropyl)pyrrolidin-3-yl]oxyphenyl]-4-indolin-5-yl-2,3-dihydro-1-benzoxepin-8-ol] | 14 nM | 74% | 63 nM | 4000 nM | 464 nM | 24 nM | 4000 nM | 357 nM |  |  | 
5 | Oc1cc2c(cc1Cl)C(c1ccc(O[C@H]3CCN(CCCF)C3)cc1)=C(c1ccc3[nH]ccc3c1)CCO2 [Example 144, 7-chloro-5-[4-[(3S)-1-(3-fluoropropyl)pyrrolidin-3-yl]oxyphenyl]-4-(1H-indol-5-yl)-2,3-dihydro-1-benzoxepin-8-ol] | 18 nM | 75% | 64 nM | 4000 nM | 528 nM | 38 nM | 4000 nM | 653 nM |  |  | 
6 | Cc1ccc(C2=C(c3ccc(O[C@H]4CCN(CCCF)C4)cc3)c3cc(Cl)c(O)cc3OCC2)c(F)c1 [Example 145, 7-chloro-4-(2-fluoro-4-methyl-phenyl)-5-[4-[(3S)-1-(3-fluoropropyl)pyrrolidin-3-yl]oxyphenyl]-2,3-dihydro-1-benzoxepin-8-ol] | 0.5 nM | 82% | 17 nM | 4000 nM | 256 nM | 9 nM | 3270 nM | 124 nM |  |  | 
7 | COCCOc1ccc(C2=C(c3ccc(O[C@H]4CCN(CCCF)C4)cc3)c3ccc(O)cc3OCC2)cc1 [Example 146, 5-[4-[(3S)-1-(3-fluoropropyl)pyrrolidin-3-yl]oxyphenyl]-4-[4-(2-methoxyethoxy)phenyl]-2,3-dihydro-1-benzoxepin-8-ol] | 2 nM | 86% | 12 nM |  |  | 6 nM |  | 69 nM | 1170 nM | 51 nM | 845 nM
8 | Oc1ccc2c(c1)OCCC(c1ccc(OCCN3CCCC3)cc1)=C2c1ccc(O[C@H]2CCN(CCCF)C2)cc1 [Example 147, 5-[4-[(3S)-1-(3-fluoropropyl)pyrrolidin-3-yl]oxyphenyl]-4-[4-(2-pyrrolidin-1-ylethoxy)phenyl]-2,3-dihydro-1-benzoxepin-8-ol] | 49 nM | 77% | 90 nM |  |  | 52 nM |  | > 999 nM | > 4000 nM | 390 nM | 3810 nM
9 | COc1c(C(=O)O)cccc1C1=C(c2ccc(O[C@H]3CCN(CCCF)C3)cc2)c2ccc(O)cc2OCC1 [Example 148, 3-[5-[4-[(3S)-1-(3-fluoropropyl)pyrrolidin-3-yl]oxyphenyl]-8-hydroxy-2,3-dihydro-1-benzoxepin-4-yl]-2-methoxy-benzoic acid] | 448 nM | 77% | 314 nM |  |  | 222 nM |  | > 999 nM | > 4000 nM | > 4000 nM | > 4000 nM
10 | Oc1ccc2c(c1)OCCC(c1ccc(OC3CC3)cc1)=C2c1ccc(O[C@H]2CCN(CCCF)C2)cc1 [Example 149, 4-[4-(cyclopropoxy)phenyl]-5-[4-[(3S)-1-(3-fluoropropyl)pyrrolidin-3-yl]oxyphenyl]-2,3-dihydro-1-benzoxepin-8-ol] | 0.9 nM | 91% | 2 nM |  |  | 0.5 nM |  | 12 nM | 303 nM | 23 nM | 289 nM
11 | Oc1ccc2c(c1)OCCC(c1ccc3c(c1)CCO3)=C2c1ccc(O[C@H]2CCN(CCCF)C2)cc1 [Example 151, 4-(2,3-dihydrobenzofuran-5-yl)-5-[4-[(3S)-1-(3-fluoropropyl)pyrrolidin-3-yl]oxyphenyl]-2,3-dihydro-1-benzoxepin-8-ol] | 0.4 nM | 90% | 1 nM |  |  | 0.3 nM |  | 7 nM | 88 nM | 6 nM | 68 nM
12 | CCOc1ccc(C2=C(c3ccc(O[C@H]4CCN(CCCF)C4)cc3)c3ccc(O)cc3OCC2)c(F)c1 [Example 152, 4-(4-ethoxy-2-fluoro-phenyl)-5-[4-[(3S)-1-(3-fluoropropyl)pyrrolidin-3-yl]oxyphenyl]-2,3-dihydro-1-benzoxepin-8-ol] | 0.2 nM | 92% | 3 nM |  |  | 0.5 nM |  | 4 nM | 154 nM | 9 nM | 107 nM
13 | CCOc1ccc(C2=C(c3ccc(O[C@H]4CCN(CCCF)C4)cc3)c3ccc(O)cc3OCC2)c(Cl)c1 [Example 153, 4-(2-chloro-4-ethoxy-phenyl)-5-[4-[(3S)-1-(3-fluoropropyl)pyrrolidin-3-yl]oxyphenyl]-2,3-dihydro-1-benzoxepin-8-ol] | 0.2 nM | 91% | 0.7 nM |  |  | 0.3 nM |  | 3 nM | 117 nM | 6 nM | 86 nM
14 | COc1ccc(C2=C(c3ccc(O[C@H]4CCN(CCCF)C4)cc3)c3ccc(O)cc3OCC2)c(Cl)c1 [Example 154, 4-(2-chloro-4-methoxy-phenyl)-5-[4-[(3S)-1-(3-fluoropropyl)pyrrolidin-3-yl]oxyphenyl]-2,3-dihydro-1-benzoxepin-8-ol] | 0.2 nM | 92% | 0.6 nM |  |  | 0.2 nM |  | 4 nM | 77 nM | 5 nM | 51 nM
15 | CCOc1ccc(C2=C(c3ccc(O[C@H]4CCN(CCCF)C4)cc3)c3cc(F)c(O)cc3OCC2)c(C)c1 [Example 155, 4-(4-ethoxy-2-methyl-phenyl)-7-fluoro-5-[4-[(3S)-1-(3-fluoropropyl)pyrrolidin-3-yl]oxyphenyl]-2,3-dihydro-1-benzoxepin-8-ol] | 0.2 nM | 81% | 1 nM |  |  | 0.4 nM |  | 6 nM | 365 nM | 21 nM | 228 nM
16 | Oc1cc2c(cc1F)C(c1ccc(O[C@H]3CCN(CCCF)C3)cc1)=C(c1ccc3occc3c1)CCO2 [Example 156, 4-(benzofuran-5-yl)-7-fluoro-5-[4-[(3S)-1-(3-fluoropropyl)pyrrolidin-3-yl]oxyphenyl]-2,3-dihydro-1-benzoxepin-8-ol] | 0.4 nM | 85% | 2 nM |  |  | 0.6 nM |  | 14 nM | 409 nM | 19 nM | 254 nM
